The data set is described as follows: Rapamycin levels in hamster cheek tissue homogenate by LC/MS. The format is in vivo, golden Syrian hamsters. Conditions: for Rapamycin assayed concentration, Average: hamster cheek pouch, all samples. The source says: Upon sacrifice of the animals, samples of both of the Hamster cheeks were obtained and frozen at −80 degrees Celsius. The samples were labeled as to the amount of intraperitoneal dose received, and whether they were right (studied with chamber) or left.

The values below come from patent publication US8486960B2, “Formulations and methods for vascular permeability-related diseases or conditions” (Santen Pharmaceutical Co., Ltd., priority 2006, dated 2013).

The structures appear in SMILES notation.

Turning to `CO[C@H]1C[C@@H]2CC[C@@H](C)[C@@](O)(O2)C(=O)C(=O)N2CCCC[C@H]2C(=O)O[C@H]([C@H](C)C[C@@H]2CC[C@@H](O)[C@H](OC)C2)CC(=O)[C@H](C)/C=C(\C)[C@@H](O)[C@@H](OC)C(=O)[C@H](C)C[C@H](C)/C=C/C=C/C=C/1C` [rapamycin], the “average tissue level of rapamycin in the hamster cheek pouch” value is, setting by setting: (0.1 mg/kg treatment group) 7.37 ng/g; (0.5 mg/kg treatment group) 11.01 ng/g; (2.0 mg/kg treatment group) 40.83 ng/g; (10 mg/kg treatment group) 55.15 ng/g. Moreover, the “Rapamycin assayed concentration, Average” value is, setting by setting: (dosing 0.1 mg/kg ip) 7.37 ng/g or pg/mg; (dosing 0.5 mg/kg ip) 11.01 ng/g or pg/mg; (dosing 2 mg/kg ip) 40.83 ng/g or pg/mg; (dosing 10 mg/kg ip) 55.15 ng/g or pg/mg.
